How the values were obtained:
[1] = test system: serotonin receptors; assay: Affinity and selectivity for serotonin receptor sites; format: binding
[2] = test system: 5-HT1A sites; assay: Labelling of Ammon's horn in postmortem human brain sections (autoradiography); format: binding; settings: treated as monkey sections
Procedure: (§1) The sections are preincubated for 1 h at 4° C. in a Krebs solution (mM: NaCl, 118; KCl, 4.5; CaCl2, 1.2; MgCl2, […]; Tris, 15; pH 7.4) in order to remove the endogenous ligands. They are then incubated at 20° C. for 60 minutes in a solution containing 10^-5 M pargyline, 57 mM ascorbic acid, 10 g/l of bovine serum albumin and 0.02 nM S--CM-G[^125 I]TNH2, alone or in the presence of increasing concentrations of serotonin. Some of the sections are incubated under identical conditions except that the radioactive probe is replaced either with 2 nM [^3 H]5-HT, or with 2 nM [^3 H]5-HT in the presence of 100 nM 8-hydroxy-2-[di-N-propylamino]tetralin (8-OH-DPAT) and 100 nM mesulergin, or with 1 nM [^3 H]8-OH-DPAT. After rinsing 2 x for 1 minute in distilled water, the sections are dried.
(§2) The slides are affixed to a tritium-sensitive film for 8 days. The film is developed for 6 minutes in D19, rinsed and fixed. The autoradiographs are quantified with a video system for image analysis (Segu et al., 1990).
(§3) a) Postmortem human brains are stored at -20° C. 10 μm sections are prepared from blocks containing either the locus niger or the Ammon's horn. The sections are treated as indicated in 4. for the monkey brain sections.
(§4) The locus niger contains virtually exclusively binding sites of the 5-HT1D type, whereas the Ammon's horn is composed predominantly of sites of the 5-HT1A type.

[3] = test system: 5-HT1C sites; assay: Labelling of rat choroid plexus (autoradiography); format: binding; settings: 0.03 nM
Procedure: (§5) The protocol for preparing the brain sections is common to all the studies which follow. The animals are decapitated after anaesthesia with chloral hydrate (400 mg/kg of gross weight). The brains are quickly removed from the skull and frozen by immersion in isopentane cooled by liquid nitrogen. 20 μm sections, prepared in a cryostat at -20° C., are mounted on gelatin-coated slides and stored at -20° C.
(§6) The sections are preincubated for 1 hour at 4° C. in a Krebs solution (NaCl 118 mM; KCl 4.8 mm; CaCl2 1.2 mM; MgCl2 1.2 mM; Tris-HCl 15 mM, pH 7.4) in order to remove the endogenous ligands.
(§7) The incubations take place for 60 minutes at 20° C. in a Krebs solution containing 10 μM pargyline, 5.7.10^-4 M ascorbic acid, 10 g/l of bovine serum albumin (fraction V, Sigma) and 0.03 nmol/l of the derivative S--CM-[^125 I]--R. The non-specific binding is determined on homothetic sections under the same conditions, but in the presence of 10^-5 M 5-HT.
(§8) After incubation, the sections are rinsed twice for 1 min in distilled water and dried by a stream of hot air. The sections are affixed to a kilm (Amersham) for one week in the presence of standards ([^125 I] microscale, Amersham). The films are developed for 6 min with Kodak D19, rinsed and fixed with AL4 (Kodak). Quantitative analysis of the autoradiographs is performed with an image analysis system (Segu et al., op. cit.). […]

[4] = test system: 5-HT1A sites; assay: Labelling of guinea-pig hippocampus (autoradiography); format: binding; settings: 0.03 nM
Procedure: as §5, §6, §7, §8

[5] = test system: 5-HT1A sites; assay: Labelling of rat hippocampus (autoradiography); format: binding; settings: 0.03 nM
Procedure: as §5, §6, §7, §8

[6] = biological target: T1, 5-HT1D sites (Macaca mulatta, UniProt F6SFA9); assay: Labelling of substantia nigra in monkey brain sections (autoradiography); format: binding, monkey (Macacca mulatta n.); settings: for binding to / marker for 5-HT1D sites: conclusion
T1 construct: The right hemisphere is cut out and frozen by isopentane cooled in liquid nitrogen; from tissue; host or cells: rhesus monkey brain sections (right hemisphere, 10 μm, frozen), substantia nigra
T1 sequence (F6SFA9 1-390): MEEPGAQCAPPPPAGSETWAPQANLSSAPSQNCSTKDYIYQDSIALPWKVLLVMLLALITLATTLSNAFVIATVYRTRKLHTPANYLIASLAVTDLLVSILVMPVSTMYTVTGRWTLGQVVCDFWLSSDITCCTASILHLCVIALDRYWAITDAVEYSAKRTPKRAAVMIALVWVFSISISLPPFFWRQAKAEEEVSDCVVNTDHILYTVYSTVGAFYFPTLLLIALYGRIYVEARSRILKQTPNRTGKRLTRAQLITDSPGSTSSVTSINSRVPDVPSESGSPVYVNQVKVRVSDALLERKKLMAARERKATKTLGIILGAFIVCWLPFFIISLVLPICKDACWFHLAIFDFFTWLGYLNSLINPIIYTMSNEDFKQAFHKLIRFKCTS
Procedure: A male monkey (Macacca mulatta n.) weighing 8 kg was sacrificed by means of an overdose of barbiturates and exsanguination. […] The right hemisphere is cut out and frozen by isopentane cooled in liquid nitrogen. The block is stored at -20° C. […] They are stored at -20° C. until required.
Some of the sections are incubated under identical conditions except that the radioactive probe is replaced either with 2 nM [^3 H]5-HT, or with 2 nM [^3 H]5-HT in the presence of 100 nM 8-hydroxy-2-[di-N-propylamino]tetralin (8-OH-DPAT) and 100 nM mesulergin, or with 1 nM [^3 H]8-OH-DPAT. After rinsing 2 x for 1 minute in distilled water, the sections are dried.
The slides are affixed to a tritium-sensitive film for 8 days. The film is developed for 6 minutes in D19, rinsed and fixed.

[7] = test system: 5-HT1D sites; assay: Labelling of 5-HT1D structures of guinea-pig brain sections (autoradiography); format: binding
Procedure: as §5, §6, §7
(§9) After incubation, the sections are rinsed twice for 1 min in distilled water and dried by a stream of hot air. The sections are affixed to a kilm (Amersham) for one week in the presence of standards ([^125 I] microscale, Amersham). The films are developed for 6 min with Kodak D19, rinsed and fixed with AL4 (Kodak). Quantitative analysis of the autoradiographs is performed with an image analysis system (Segu et al., op. cit.).
In the central nervous system of the guinea-pig, the anatomical structures containing sites of the 5-HT1A type and the pharmacology of these sites are the same as in the rat. By contrast, the pharmacology of the sites contained in the substantia nigra of the guinea-pig is different from that of the sites of the same structure in the rat (Heuring and Peroutka, J. Neurosci., 7, 1987, p. 894-903). These sites are therefore denotedas 5-HT1D.

[8] = Distribution of labelling in vivo with a gamma camera after intravenous injection; settings: mice
Procedure: 2. Study of the distribution of the binding of the derivative S--CM-G[125]TNH2 by visualization in vivo with a gamma camera
The animals (mice) are anaesthetized and injected intravenously with the derivative S--CM-G[^125 I]TNH2. […] In this latter zone, the labelling is retained for 15 to 20 minutes before slowly disappearing.

[9] = biological target: 5-HT1B sites (Rattus norvegicus, UniProt P28564); assay: Labelling of 5-HT1B structures of rat brain sections (autoradiography); format: binding
Sequence of 5-HT1B sites (P28564 whole entry): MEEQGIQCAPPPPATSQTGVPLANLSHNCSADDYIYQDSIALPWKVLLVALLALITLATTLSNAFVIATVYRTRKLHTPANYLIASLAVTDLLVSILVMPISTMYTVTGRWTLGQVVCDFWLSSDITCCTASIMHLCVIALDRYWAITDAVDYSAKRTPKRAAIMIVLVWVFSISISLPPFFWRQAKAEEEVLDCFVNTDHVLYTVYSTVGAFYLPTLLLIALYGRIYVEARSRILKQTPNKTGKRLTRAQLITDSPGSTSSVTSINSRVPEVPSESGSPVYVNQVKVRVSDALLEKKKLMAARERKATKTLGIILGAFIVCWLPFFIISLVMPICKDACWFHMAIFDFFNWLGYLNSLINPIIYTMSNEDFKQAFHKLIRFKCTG
Procedure: as §5, §6, §7, §9
This last structure is known for containing almost exclusively binding sites of the 5-HT1A type, whereas the others contain sites of the 5-HT1B type (Hoyer et al., Eur. J. Pharmacol., 118, 1985, P. 1-12). In the anterior region, the striatum (ST) is labelled: it contains especially 5-HT1B sites; the choroid plexus (Px), which contains 5-HT1c sites, is not labelled.

[10] = test system: rat central receptors; assay: Labelling of rat brain sections with iodinated derivatives (autoradiography); settings: 0.03 nM iodinated derivative; non-specific binding with 10^-5 M 5-HT
Procedure: as §5

[11] = Toxicity observed at the injected dose; format: in vivo, mice and guinea-pigs
Procedure: (§10) 2 mice and 2 guinea-pigs are deeply anaesthetized with chloral hydrate (intraperitoneal injection of 0.12 ml of a 35% solution per 100 g of body weight).
(§11) The mice and guinea-pigs receive intracardiac injections of 200 μl and 1.5 ml, respectively, of S--CM-G[^125 I]TNH2.
(§12) After 10 minutes, the animals, still under deep anaesthesia, are decapitated and the brains are frozen and stored as indicated in Example 1.

[12] = Passage across the blood-brain barrier after intracardiac injection (brain autoradiography); format: in vivo, mice and guinea-pigs; settings: 10 minutes; for passage across the blood-brain barrier: intracardiac injection, conclusion
Procedure: as §10, §11, §12
Sections are prepared and autoradiography is carried out as described in Example 1.

[13] = test system: other receptors which are not of the 5-HT type (such as β-adrenergic receptors); assay: Binding to receptors not of the 5-HT type
[14] = test system: 5-HT1D receptors; assay: Labelling of locus niger in postmortem human brain sections (autoradiography); format: binding
Procedure: as §1, §2, §3, §4

[15] = test system: 5-HT1C sites; assay: Labelling of guinea-pig choroid plexus (autoradiography); format: binding; settings: 0.03 nM
Procedure: as §5, §6, §7, §9

NCCc1c[nH]c2ccc(OCC(=O)NCC(=O)N[C@@H](Cc3ccc(O)c([125I])c3)C(N)=O)cc12 [S--CM-G[^125 I]TNH2]
preferential affinity among 5-HT1 sites ([1]; 5-HT1B and 5-HT1D vs 5-HT1A and 5-HT1C): preferential affinity for the 5-HT1B and 5-HT1D sites compared with the 5-HT1A and 5-HT1C sites
ligand labelling of the 5-HT1D sites ([1]; compared with other ligands): only ligand to label the 5-HT1D sites
labelling of the Ammon's horn [2]: weak labelling
labelling of the choroid plexus [3]: not labelled
labelling of the hippocampus ([4]; listed as S--CM-G[^125I]TNH2): not the hippocampus
labelling of the hippocampus ([4]; listed as S-CM-G[^125 I]TNH2): not labelled
labelling of the hippocampus [5]: no labelling
labelling of the hippocampus ([5]; listed as S-CM-G[^125 I]TNH2): not labelled
labelling of the substantia nigra ([6]; 0.02 nM S-CM-G[125I]TNH2): virtually exclusive labelling of the substantia nigra
labelling of the substantia nigra ([6]; 0.02 nM S-CM-G[125I]TNH2, listed as [^125 I]S-CM-GTNH2): exclusive labelling of the substantia nigra
binding to / marker for 5-HT1D sites [6]: marker for 5-HT1D receptors
binding to / marker for 5-HT1D sites ([6]; listed as S--CM-G[^125 I9 TNH2): specific for the 5-HT1D sites
binding to / marker for 5-HT1D sites ([6]; listed as S--CM-G[^125 I ]TNH2): binds to the 5-HT1D sites
labelling of the substantia nigra ([7]; 0.03 nM): labels the substantia nigra
labelling of St, SD and SN ([7]; FIG. 6, 0.03 nM): labelled
marker for 5-HT1D sites ([7]; conclusion): marker for sites with a high affinity for serotonin of the 1D type
labelling of the vascular system 10 minutes after the injection ([8]; 10 minutes): the labelling decreases in the vascular system, except for the heart and the cerebral vascular system
initial distribution of labelling ([8]; gamma camera): very quickly observed to diffuse into the heart, the entire vascular system and the liver
labelling of the bladder ([8]; longer term): increases in the longer term
labelling of the heart ([8]; longer term): remaining labelled for a fairly long time
labelling of St, SD and SN ([9]; FIG. 5, 0.03 nM): labelled
labelling of the striatum ([9]; anterior region, 0.03 nM): labelled
marker specificity for 5-HT1B sites ([9]; conclusion): specific marker for binding sites with a high affinity for serotonin of the 1B type
labelling of the substantia nigra and the dorsal subiculum ([9]; mesencephalic region, 0.03 nM): intense labelling
labelling / specific retention on rat brain sections [10]: retained specifically on rat brain sections
toxicity [11]: No toxicity was observed
labelling of brain sections after in vivo injection ([12]; intracardiac injection (mice 200 μl, guinea-pigs 1.5 ml)): no labelling
passage across the blood-brain barrier [12]: does not cross the blood-brain barrier
passage across the blood-brain barrier ([12]; listed as S--CM-G[125]TNH2): does not pass through the blood-brain barrier
selectivity vs receptors not of the 5-HT type [13]: high selectivity without binding to other receptors which are not of the 5-HT type
labelling of 5-HT1D receptors of the human brain in vitro ([14]; conclusion): labels the 5-HT1D receptors of the human brain in vitro
labelling of the locus niger ([14]; postmortem, treated as monkey sections): strong labelling
labelling of the choroid plexus [15]: not labelled

From patent US5298491A, “Derivatives of endogenous mediators, their salts, method of preparation, applications and compositions in which they are present” (priority 1990, dated 1994)
